Laboratory results published in patent US20150216870A1, “Combination of PI3K Inhibitor and C-Met Inhibitor” (Novartis AG, priority 2012, published 2015).
Entries after “also recorded” stand apart in the source; their conditions may differ.

How the values were obtained:
EBC-1 = assay: Cell viability (CellTiterGlo) combination dose matrix in EBC-1; assay type: cell-based, human; details: combination with c-Met inhibitor, 72 h, excluding highest concentration, 0 no inhibition, 1 = 100% inhibition/stasis, 2 = cell death
Experimental: (§3) Compound stocks of both compounds are individually prepared in DMSO. Compounds are serially diluted using a Tecan dispenser to cover a ˜1000× range of concentrations. […] Both single agent and combinations are tested at multiple concentrations, along with controls and one self-cross.
(§4) The cell lines used in this study are purchased from American Type Cell Collection, including human non small cell lung cancer cell lines EBC-1 (which bears c-Met amplification), NCI-H1993 (which bears c-MET amplified), NCI-H1648 (which bears c-Met amplification), NCI-H1573 (which bears c-Met amplification and KRAS mutation) and HCC2935 (EGFR mutation). All cell lines are maintained in their respective culture medium as specified by the provider.
(§5) For the assessment of combination effects, cells are seeded into 384-well plates at 500 cells/well and incubated overnight. […]
(§6) Effects of single agents as well as their combination on cell viability is assessed after 72 hours of incubation at 37° C./5% CO2 by quantification of cellular ATP levels (CellTiterGlo, Promega) using 25 μL reagent/well and n=2 replicate plates per condition. The number/viability of cells at time of compound addition is likewise assessed and used to estimate the population doubling time of a cell line.
(§7) For untreated and treated levels U and T, inhibition is calculated using the formula I=1−T/U, which ranges from 0% to 100% for complete inhibition. […]
(§8) The Loewe expectation [Loewe S., Ergebn Physiol 27: 47-187 (1928)) is calculated at each dose pair CX,Y by finding the inhibition ILoewe such that (CX/ICX)+(CY/ICY)=1, and ICX,Y are the effective concentrations at ILoewe for the fitted single agent curves, using numerical optimization [Berenbaum M C, J Theor Biol 114: 413-431 (1985)]. The “synergy score” S is calculated by averaging the difference between Idata and ILoewe across all the tested combination dose points, excluding the highest concentration point in the dose matrix, which is most likely to be dominated by drug off-target effects. […]

HCC2935 = assay: Cell viability (CellTiterGlo) combination dose matrix in HCC2935; assay type: cell-based, human; details: combination with c-Met inhibitor, 72 h, excluding highest concentration
Experimental: as §3, §4, §5, §6, §7, §8

NCI-H1648 = assay: Cell viability (CellTiterGlo) combination dose matrix in NCI-H1648; assay type: cell-based, human; details: combination with c-Met inhibitor, 72 h, excluding highest concentration
Experimental: as §3, §4, §5, §6, §7, §8

NCI-H1573 = assay: Cell viability (CellTiterGlo) combination dose matrix in NCI-H1573; assay type: cell-based, human; details: combination with c-Met inhibitor, 72 h, excluding highest concentration
Experimental: as §3, §4, §5, §6, §7, §8

NCI-H1993 = assay: Cell viability (CellTiterGlo) combination dose matrix in NCI-H1993; assay type: cell-based, human; details: combination with c-Met inhibitor, 72 h, excluding highest concentration
Experimental: as §3, §4, §5, §6, §7, §8

[1] = Toxicity (body weight, deaths) in NCI-H1993 xenograft study; assay type: in vivo; details: COMPOUND D 30 mg/kg p.o. qd to end
Experimental: (§1) Animals are weighed on Days 1-5, on each treatment day (except weekends), and twice weekly thereafter, until the end of the study. The maximum group mean body weight (BW) loss is determined for the interval between D1 and D20 as well as for the entire study. Group mean BW nadir determinations exclude measurements taken after more than 50% of the assessable mice in the group have exited the study, and also exclude any animal that was classified as a non-treatment related (NTR) death during the study. Acceptable toxicity for the maximum tolerated dose (MTD) is defined as a group mean BW loss of less than 15% during the test, and not more than one TR death among ten animals. Any animal with BW losses exceeding 15% for three consecutive measurements, or with a BW loss exceeding 20% for one measurement, are euthanized, and classified as a TR death unless it was the first death in the group. A death is classified as NTR if there was no evidence that the death is related to treatment side effects and the death occurs more than 14 days after dosing ended. NTR deaths are categorized as NTRa (due to accident or error), NTRu (due to unknown causes), or NTRm (necropsy-confirmed tumor dissemination by invasion and/or metastasis). To conserve animals while providing maximum information, the first death in a group was classified as NTRu; such an NTR death was to be reclassified as TR if two subsequent TR deaths are recorded in the same group.

[2] = tested on: NCI-H1993 human non-small cell lung carcinoma xenograft; assay: NCI-H1993 xenograft tumor growth inhibition and tumor growth delay; assay type: in vivo, athymic nude mice; details: COMPOUND D 30 mg/kg p.o. qd to end
Text: In this experiment, the NCI-H1993 human non-small cell lung carcinoma xenograft model is used to assess the anti-tumor efficacy of the PI3K inhibitor COMPOUND D and c-Met inhibitor 2-fluoro-N-methyl-4-[7-quinolin-6-yl-methyl)-imidazo[1,2-b][1,2,4]triazin-2yl]benzamide as single agents or in combination. NCI-H1993 tumor cells obtained from the American Type Culture Collection (ATCC) are derived from a lymph node metastasis of a patient having a stage 3A lung adenocarcinoma and a history of smoking.
(§2) Female athymic nude mice (Crl:NU (Ncr)-Foxn1^nu, Charles River) are 8 weeks old, and have a body weight (BW) range of 16.1-26.2 g, on D1 of the study. The animals are fed ad libitum water (reverse osmosis, 1 ppm CI) and NIH 31 Modified and Irradiated Lab Diet® consisting of 18.0% crude protein, 5.0% crude fat, and 5.0% crude fiber. The mice are housed on irradiated Enrich-O'cobs™ Laboratory Animal Bedding in static microisolators on a 12-hour light cycle at 20-22° C. (68-72° F.) and 40-60% humidity.
The NCI-H1993 tumor line is obtained from the American Type Culture Collection and maintained at DRS_NC in RPMI-1640 medium containing 100 unites/penicillin G sodium, 100 µg/mL streptomycin sulfate, 25 µg/mL gentamicin, 10% fetal bovine serum, and 2 mM glutamine. The tumor cells are cultured in tissue culture flasks in a humidified incubator at 37° C. in an atmosphere of 5% CO2 and 95% air.
The tumor cells used for implementation are harvested during log phase growth and resuspended in cold PBS containing 50% Matrigel™ (BD Biosciences). Each mouse is injected subcutaneously in the right flank with 1×10^7 cells (0.2 mL cell suspension). Tumors are calipered in two dimensions to monitor growth as their mean volume approached the desired 200-250 mm^3 range. Tumor size, in mm^3, was calculated from: Tumor Volume=(width^2×length)/2, where width and length (in mm) are measurements of the tumor. Tumor weight can be estimated with the assumption that 1 mg is equivalent to 1 mm^3 of tumor volume. Fourteen days after tumor cell implantation, on D1 of the study, mice with individual tumor volumes of 172-256 mm^3 are sorted into groups of ten mice, with group mean tumor volumes of 206-215 mm^3.
The c-Met inhibitor 2-fluoro-N-methyl-4-[7-quinolin-6-yl-methyl)-imidazo[1,2-b][1,2,4]triazin-2yl]benzamide (HCl salt, 84.98% free base) is stored at 4° C. and is added to a volume of deionized water equal to 1/2 of the final volume and sonicated until dissolved to obtain a uniform 2× suspension. An equal volume of 0.5% methylcellulose: 0.1% Tween® 80 is added to provide a 1.77 mg/mL solution with final vehicle concentrations of 0.25% methylcellulose and 0.05% Tween® 80 in deionized water (Vehicle 1). Fresh solutions are prepared once daily for the […]. dosing and stored at room temperature until the a.m. dosing.
COMPOUND D is suspended at 3.0 mg/mL in 0.5% methylcellulose in deionized water. The vehicle is added in portions equal to 1/3 of the final volume. The suspension is vortexed after each addition, and then finally probe sonicated on ice to prepare a homogeneous white suspension. A fresh suspension is prepared weekly, stored at 4° C., and re-suspended prior to dosing.
The c-MET inhibitor and the vehicle is each administered via oral gavage (p.o.) twice daily for the duration of the study (b.i.d. to end). COMPOUND D is administered via oral gavage (p.o.) once daily for the duration of the study (qd to end). In combination therapies, COMPOUND D is dosed within 30 minutes after the c-Met inhibitor. In all groups, the dosing volume of 10 mL/kg (0.2 mL/20 g mouse) is scaled to the weight of each animal as determined on the day of dosing, except on weekends when the previous BW is carried forward.
The groups of nude mice (n=10/group) are treated as follows. Group 1 receive Vehicle 1 and Vehicle 2 and serve as controls for the study. […] Group 3 receives 30 mg/kg COMPOUND D monotherapy once daily for the duration of the study (qd to end).

[3] = Toxicity (deaths) in U-87 MG xenograft study; assay type: in vivo; details: temozolomide 100 mg/kg p.o. qd x5
Text: as §1, with “the study. Group mean” for “the study. The maximum group mean body weight (BW) loss is determined for the interval between D1 and D20 as well as for the entire study. Group mean”, “the group had exited the” for “the group have exited the”, “and also excluded any animal” for “and also exclude any animal”, “classified as an NTR death during” for “classified as a non-treatment related (NTR) death during”, “classified as Non-Treatment Related (NTR) if there” for “classified as NTR if there”

[4] = tested on: U-87 MG human glioblastoma xenograft; assay: U-87 MG xenograft tumor growth inhibition and tumor growth delay; assay type: in vivo, nude mice; details: temozolomide 100 mg/kg p.o. qd x5
Experimental: In this experiment, the U-87 MG human glioblastoma xenograft model is used to assess the anti-tumor efficacy of the PI3K inhibitor COMPOUND C and c-Met inhibitor 2-fluoro-N-methyl-4-[7-quinolin-6-yl-methyl)-imidazo[1,2-b][1,2,4]triazin-2yl]benzamide as single agents or in combination. U-87 MG tumor cells obtained from the National Cancer Institute are reported to be homozygous for likely oncogenic variants of CDKN2A, CDKN2C, CDKN2a, and PTEN; no mutations are detected in MET, PIK3CA, or 58 other genes that are frequently altered in neoplastic cells; and HGF expressing.
Mice are treated daily for 21 days with 17.7 and 35.3 mg/kg of the c-Met inhibitor and 32.7 mg/kg COMPOUND C monotherapies, and with the c-Met inhibitor/COMPOUND C dual therapy at 17.7:32.7. An c-Met inhibitor/COMPOUND C combination at the 58.8:5.4 mg/kg dose ratio was included in the study. The control mice received both vehicles, and a standard preclinical temozolomide regimen monitored tumor model performance. The oral treatments began on Day 1 (D1) in nude mice with established subcutaneous tumors. Each animal was euthanized when its tumor reached the predetermined 2000 mm3 endpoint volume, or on D60, whichever came first. The study was terminated on D51. […] Overall efficacy was determined from the times required for tumors to progress to the volume endpoint, and from D51 survival and regression rates. This report describes the methods and results of the U87MG-e326 tumor growth delay experiment.
as §2, with “The” for “Female athymic nude mice (Crl:NU (Ncr)-Foxn1^nu, Charles River) are 8 weeks old, and have a body weight (BW) range of 16.1-26.2 g, on D1 of the study. The”
The U-87 MG tumor line is obtained from the American Type Culture Collection and maintained by serial engraftment in nude mice. A tumor fragment (1 mm^3) is implanted subcutaneously into the right flank of each test mouse. Tumors are calipered in two dimensions to monitor growth as their mean volume approached the desired 100-150 mm^3 range. Tumor size, in mm^3, was calculated from: Tumor Volume=(width^2×length)/2, where width and length (in mm) are measurements of the tumor. Tumor weight can be estimated with the assumption that 1 mg is equivalent to 1 mm^3 of tumor volume. Fourteen days after tumor cell implantation, on D1 of the study, mice with individual tumor volumes of 63-196 mm^3 are sorted into seven groups, with group mean tumor volumes of 122-127 mm^3.
The c-Met inhibitor 2-fluoro-N-methyl-4-[7-quinolin-6-yl-methyl)-imidazo[1,2-b][1,2,4]triazin-2yl]benzamide (di-HCl salt, 84.98% free base) is stored at 4° C. and is added to deionized water at 2× the final concentration and sonicated until dissolved. An equal volume of 0.5% methylcellulose and 0.1% Tween® 80 in deionized water is added to provide a 5.884 mg/mL dosing solution in 0.25% methylcellulose and 0.05% Tween® 80 in deionized water (Vehicle 1). Portions of this solution are diluted with Vehicle 1 to provide 3.53 and 1.765 mg/mL dosing solutions.
COMPOUND C (HCl salt, 91.85% free base) is stored at −20° C. and is added to 1% Tween® 80 in deionized water and sonicated to obtain a uniform suspension at 2× the final concentration. […] The 0.544 mg/mL dosing suspension is obtained by diluting a portion of the first suspension with Vehicle 2.

SMILES	MaxGI (GImax, combination effectiveness) (EBC-1)	MaxGI (GImax, combination effectiveness) (HCC2935)	MaxGI (GImax, combination effectiveness) (NCI-H1648)	MaxGI (GImax, combination effectiveness) (NCI-H1573)	MaxGI (GImax, combination effectiveness) (NCI-H1993)	Deaths [1]	tolerability (in words) [1]	% TGD [2] [%]	D20 tumor growth inhibition / activity (in words) [2]	T-C [2] [days]	T/C or T/T0 ([2]; D20) [%]	Median TTE ([2]; endpoint 600 mm3) [days]	Regression: PR ([2]; number of animals) [PR]	overall survival (in words) ([2]; vs control Group 1)	Deaths [3]	% TGD [4] [%]	T/C or T/T0 ([4]; D13) [%]	Median TTE ([4]; endpoint 2000 mm3) [days]	Regress. ([4]; number of animals)
Cn1c(=O)n(-c2ccc(C(C)(C)C#N)cc2)c2c3cc(-c4cnc5ccccc5c4)ccc3ncc21 [COMPOUND A, 2-methyl-2-[4-(3-methyl-2-oxo-8-quinolin-3-yl-2,3-dihydro-imidazo[4,5-c]quinolin-1-yl)-phenyl]-propionitrile]	1.90	1.36	1.72	1.90	1.33														
Cc1nc(NC(=O)N2CCC[C@H]2C(N)=O)sc1-c1ccnc(C(C)(C)C(F)(F)F)c1 [COMPOUND D, (S)-Pyrrolidine-1,2-dicarboxylic acid 2-amide 1-({4-methyl-5-[2-(2,2,2-trifluoro-1,1-dimethyl-ethyl)-pyridin-4-yl]-thiazol-2-yl}-amide)]	1.87	0.77	1.37	0.57	1.21	(0)	Well-tolerated	−4	non-significant median tumor growth acceleration; also recorded: not significantly active (inactive)	-1.1	117	24.0	1	non-significantly briefer overall survival than control					
Cn1nnc2c(C(N)=O)ncn2c1=O [Temozolomide, reference compound]															(0)	51	48	17.7	0
